Consider two compounds from ChEMBL document CHEMBL1146165, “Structure-based de novo design, synthesis, and biological evaluation of the indole-based PPARgamma ligands (I)” (Bioorg Med Chem Lett, 2006).

For the experiment, the target named is T1, Peroxisome proliferator-activated receptor gamma (Homo sapiens, UniProt P37231).
T1 sequence (P37231 whole entry): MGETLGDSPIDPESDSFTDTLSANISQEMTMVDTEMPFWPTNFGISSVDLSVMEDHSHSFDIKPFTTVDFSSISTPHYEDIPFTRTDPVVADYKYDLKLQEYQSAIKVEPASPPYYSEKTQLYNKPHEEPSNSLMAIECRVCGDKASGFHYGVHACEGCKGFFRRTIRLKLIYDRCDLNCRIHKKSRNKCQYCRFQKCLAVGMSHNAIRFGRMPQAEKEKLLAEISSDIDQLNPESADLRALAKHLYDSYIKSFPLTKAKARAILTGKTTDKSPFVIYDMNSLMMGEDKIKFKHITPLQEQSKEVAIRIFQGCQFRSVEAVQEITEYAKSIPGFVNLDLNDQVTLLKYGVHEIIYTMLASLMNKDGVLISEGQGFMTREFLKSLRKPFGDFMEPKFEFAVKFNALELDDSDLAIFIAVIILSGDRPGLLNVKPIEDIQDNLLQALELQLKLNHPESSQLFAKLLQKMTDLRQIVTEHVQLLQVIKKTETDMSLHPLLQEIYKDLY
Description: Binding affinity to human PPARgamma.

The compound `O=C(NC(Cc1c[nH]c2cc(OCc3ccccc3)ccc12)(C(=O)O)C(=O)O)c1ccc(Cl)cc1` displayed a Kd of 8.69 µM.

Take `O=C(NC(Cc1c[nH]c2cc(OCc3ccccc3)ccc12)C(=O)O)c1ccc(Cl)cc1` (configuration not stated): the Kd was found to be 6.86 µM.
